Test results published in EPA's CvTdb concentration-time database.

What was measured:
Rat [1] = test: concentration in brain after dosing; settings: 7 min; dosed: 2-Methyltetrahydrofuran; 40 mg/kg; iv; Male; Harlan Sprague Dawley
Rat [2] = test: concentration in brain after dosing; settings: 7 min; dosed: 2-Methyltetrahydrofuran; 40 mg/kg; iv; Male; Harlan Sprague Dawley; remark: listed apart in the source
Rat [3] = test: concentration in brain after dosing; settings: 2 min; dosed: 2-Methyltetrahydrofuran; 40 mg/kg; iv; Female; Harlan Sprague Dawley
Rat [4] = test: concentration in plasma after dosing; settings: 1.5 h; dosed: 2-Methyltetrahydrofuran; 40 mg/kg; iv; Male; Harlan Sprague Dawley
Rat [5] = test: concentration in plasma after dosing; settings: 2 h; dosed: 2-Methyltetrahydrofuran; 40 mg/kg; iv; Male; Harlan Sprague Dawley
Rat [6] = test: concentration in plasma after dosing; settings: 1.5 h; dosed: 2-Methyltetrahydrofuran; 40 mg/kg; iv; Male; Harlan Sprague Dawley; remark: listed apart in the source
Rat [7] = test: concentration in brain after dosing; settings: 1 h; dosed: Perfluorohexanoic Acid; 80 mg/kg; oral; Male; Harlan Sprague Dawley
Rat [8] = test: concentration in liver after dosing; settings: 1 h; dosed: Perfluorohexanoic Acid; 80 mg/kg; oral; Female; Harlan Sprague Dawley
Rat [9] = test: concentration in liver after dosing; settings: 0.5 h; dosed: Perfluorohexanoic Acid; 80 mg/kg; oral; Female; Harlan Sprague Dawley
Rat [10] = test: concentration in brain after dosing; settings: 0.5 h; dosed: Perfluorohexanoic Acid; 80 mg/kg; oral; Female; Harlan Sprague Dawley
Rat [11] = test: concentration in kidney after dosing; settings: 6 h; dosed: Perfluorohexanoic Acid; 80 mg/kg; oral; Female; Harlan Sprague Dawley
Rat [12] = test: concentration in plasma after dosing; settings: dosed: Perfluorohexanoic Acid, 40 mg/kg, oral, Male, Harlan Sprague Dawley
Rat [13] = test: concentration in kidney after dosing; settings: 6 h; dosed: Perfluorohexanoic Acid; 80 mg/kg; oral; Male; Harlan Sprague Dawley
Rat [14] = test: concentration in plasma after dosing; settings: 0.5 h; dosed: Perfluorohexanoic Acid; 40 mg/kg; iv; Male; F344
Rat [15] = test: concentration in kidney after dosing; settings: 1 h; dosed: Perfluorohexanoic Acid; 80 mg/kg; oral; Male; Harlan Sprague Dawley
Rat [16] = test: concentration in plasma after dosing; settings: dosed: Perfluorohexanoic Acid, 80 mg/kg, oral, Male, Harlan Sprague Dawley
Rat [17] = test: concentration in kidney after dosing; settings: 3 h; dosed: Perfluorohexanoic Acid; 80 mg/kg; oral; Female; Harlan Sprague Dawley
Rat [18] = test: concentration in plasma after dosing; settings: dosed: Perfluorohexanoic Acid, 40 mg/kg, iv, Male, F344
Rat [19] = test: concentration in plasma after dosing; settings: dosed: Perfluorohexanoic Acid, 40 mg/kg, iv, Male, F344; remark: listed apart in the source
Rat [20] = test: concentration in plasma after dosing; settings: dosed: Perfluorohexanoic Acid, 40 mg/kg, oral, Male, Harlan Sprague Dawley; remark: listed apart in the source
Rat [21] = test: concentration in plasma after dosing; settings: 0.75 h; dosed: Perfluorohexanoic Acid; 80 mg/kg; oral; Male; Harlan Sprague Dawley
Rat [22] = test: concentration in plasma after dosing; settings: 5 min; dosed: Gemfibrozil; 100 mg/kg; oral; Male; Sprague-Dawley
Rat [23] = test: concentration in plasma after dosing; settings: 1 h; dosed: Gemfibrozil; 50 mg/kg; oral; Male; Sprague-Dawley
Rat [24] = test: concentration in plasma after dosing; settings: 18 h; dosed: Gemfibrozil; 4.29 mg/kg; oral; Male; Sprague-Dawley
Rat [25] = test: concentration in plasma after dosing; settings: 0.5 h; dosed: Gemfibrozil; 4.29 mg/kg; oral; Male; Sprague-Dawley
Rat [26] = test: concentration in plasma after dosing; settings: 24 h; dosed: Gemfibrozil; 4.29 mg/kg; oral; Male; Sprague-Dawley
Rat [27] = test: concentration in plasma after dosing; settings: 10 min; dosed: Gemfibrozil; 4.29 mg/kg; oral; Male; Sprague-Dawley
Rat [28] = test: concentration in liver after dosing; settings: 6 h; dosed: Perfluorooctane Sulfonate; 2 mg/kg; oral; Female; Harlan Sprague Dawley
Rat [29] = test: concentration in brain after dosing; settings: 1848 h; dosed: Perfluorooctane Sulfonate; 20 mg/kg; oral; Male; Harlan Sprague Dawley
Rat [30] = test: concentration in brain after dosing; settings: 6 h; dosed: Perfluorooctane Sulfonate; 20 mg/kg; oral; Female; F344
Rat [31] = test: concentration in liver after dosing; settings: 1848 h; dosed: Perfluorooctane Sulfonate; 20 mg/kg; oral; Male; Harlan Sprague Dawley
Rat [32] = test: concentration in brain after dosing; settings: 24 h; dosed: Perfluorooctane Sulfonate; 20 mg/kg; oral; Female; F344
Rat [33] = test: concentration in liver after dosing; settings: 864 h; dosed: Perfluorooctane Sulfonate; 2 mg/kg; oral; Female; Harlan Sprague Dawley
Rat [34] = test: concentration in kidney after dosing; settings: 24 h; dosed: Perfluorooctane Sulfonate; 20 mg/kg; oral; Female; F344
Rat [35] = test: concentration in kidney after dosing; settings: 24 h; dosed: Perfluorooctane Sulfonate; 2 mg/kg; oral; Female; Harlan Sprague Dawley
Rat [36] = test: concentration in kidney after dosing; settings: 3360 h; dosed: Perfluorooctane Sulfonate; 2 mg/kg; oral; Female; Harlan Sprague Dawley
Rat [37] = test: concentration in plasma after dosing; settings: dosed: Perfluorooctane Sulfonate, 2 mg/kg, iv, Female, F344
Rat [38] = test: concentration in brain after dosing; settings: 0.5 h; dosed: Fluorotelomer alcohol 8+2; 80 mg/kg; oral; Female; Harlan Sprague Dawley
Rat [39] = test: concentration in brain after dosing; settings: 12 h; dosed: Fluorotelomer alcohol 8+2; 80 mg/kg; oral; Female; Harlan Sprague Dawley
Rat [40] = test: concentration in plasma after dosing; settings: dosed: 678-39-7, 40 mg/kg, iv, Female, Harlan Sprague-Dawley

CC1CCCO1 (configuration not stated) [2-Methyltetrahydrofuran]
Settings	concentration in brain [ng/mL]	concentration in plasma [ng/mL]
Rat [1]	29000	–
Rat [2]	25400	–
Rat [3]	50400	–
Rat [4]	–	11000
Rat [5]	–	12100
Rat [6]	–	11400

O=C(O)C(F)(F)C(F)(F)C(F)(F)C(F)(F)C(F)(F)F [Perfluorohexanoic Acid]
Settings	concentration in brain [ng/g]	concentration in kidney [ng/g]	concentration in liver [ng/g]	concentration in plasma [ng/mL]
Rat [7]	2830	–	–	–
Rat [8]	–	–	39700	–
Rat [9]	–	–	24900	–
Rat [10]	1270	–	–	–
Rat [11]	–	2180	–	–
Rat [13]	–	10600	–	–
Rat [14]	–	–	–	4980
Rat [15]	–	79900	–	–
Rat [17]	–	71400	–	–
Rat [21]	–	–	–	129000

Settings	concentration in plasma [ng/mL]
Rat [12], 1 h	39400
Rat [12], 24 h	423
Rat [16], 0.25 h	156000
Rat [16], 24 h	416
Rat [18], 0.5 h	23200
Rat [18], 12 h	120
Rat [19], 3 h	3900
Rat [19], 5 min	23100
Rat [20], 0.5 h	65500
Rat [20], 9 h	4960

Cc1ccc(C)c(OCCCC(C)(C)C(=O)O)c1 [Gemfibrozil]
Settings	concentration in plasma [ng/mL]
Rat [22]	1690
Rat [23]	7680
Rat [24]	127
Rat [25]	570
Rat [26]	159
Rat [27]	606

O=S(=O)([O-])C(F)(F)C(F)(F)C(F)(F)C(F)(F)C(F)(F)C(F)(F)C(F)(F)C(F)(F)F [Perfluorooctane Sulfonate]
Settings	concentration in brain [ng/g]	concentration in kidney [ng/g]	concentration in liver [ng/g]
Rat [28]	–	–	19800
Rat [29]	2130	–	–
Rat [30]	3430	–	–
Rat [31]	–	–	37900
Rat [32]	15200	–	–
Rat [33]	–	–	17500
Rat [34]	–	127000	–
Rat [35]	–	8400	–
Rat [36]	–	1110	–

Rat [37]
Settings	concentration in plasma [ng/mL]
6 h	4560
864 h	1530

O=C(O)CCC(F)(F)C(F)(F)C(F)(F)C(F)(F)C(F)(F)C(F)(F)C(F)(F)F [Fluorotelomer acid 7+3]
Settings	concentration in brain [ng/g]
Rat [38]	114
Rat [39]	484

Rat [40]
Settings	concentration in plasma [ng/mL]
0.75 h	929
12 h	368
